From patent US7049336B2, “Method for diagnosing neuronal diseases and for treating primary hemostasis deficiency” (Max-Delbruck-Centrum fur Molekularc Medizin, priority 2000, dated 2006)

System: TPH(−/−)-mice
Experiment: Bleeding time (disturbed hemostasis) in TPH(−/−)-mice after intracardial injection
Type: in vivo, mouse
Settings: for Effect on prolonged bleeding time phenotype: TPH(−/−)-mice
Description: FIG. 3. Disturbed hemostasis in TPH(−/−)-mice. • A. Prolonged bleeding times of TPH(−/−)-animals. […] The 5-HT-amounts applied result in 1/10 and the ten-fold of the normal blood concentrations. • C. […] The effect is specific for the TPH(−/−)-mice, whereas control-animals are not affected.

| Compound | Effect on prolonged bleeding time phenotype (intracardial 5-HT-injection, amounts result in 1/10 and the ten-fold of the normal blood concentrations) | Effect on prolonged bleeding time phenotype (intracardial von Willebrand-factor injection) | Effect on bleeding time in control-animals (control-animals, intracardial von Willebrand-factor injection) |
| --- | --- | --- | --- |
| NCCc1c[nH]c2ccc(O)cc12 [5-HT, serotonin, reference compound] | Healing of the phenotype |  |  |
| von Willebrand-factor: commercially available von Willebrand-factor (vWF) |  | Healing of the phenotype | not affected |
